The values that follow come from PubChem BioAssay (NCI).

Each structure is given as a SMILES string.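 Cells were grown in 96-well plates and exposed to each compound for 48 hours at five concentrations; endpoints were interpolated linearly between bracketing concentrations, or set to the highest concentration if not reached. At the TGI there is no net growth.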

Test systems include SK-OV-3 ovarian; EKVX NSCLC; ACHN renal; OVCAR-4 ovarian; HOP-62 NSCLC; 786-0 renal; HL-60(TB) leukemia; MCF7 breast; OVCAR-5 ovarian; PC-3 prostate; UO-31 renal.
Common to all, as to assay: inhibition of tumour cell growth, NCI panel, 48 h

For the molecule `COC(=O)/C=C/[C@H]1[C@H](C)N1S(=O)(=O)c1ccc(C)cc1` (stereo partly specified), the TGI in the test with SK-OV-3 ovarian, in the test on EKVX NSCLC, in the test on ACHN renal, in the test with OVCAR-4 ovarian, with HOP-62 NSCLC and with 786-0 renal was over 100 µM in each case. The TGI in the test with HL-60(TB) leukemia, with MCF7 breast, in the test with OVCAR-5 ovarian and with PC-3 prostate was over 100 µM in each case.

For the molecule `FC(F)(F)c1ccc(N=NN2CCCC2)cc1`, the TGI in the test on SK-OV-3 ovarian, in the test on EKVX NSCLC, in the test with ACHN renal, in the test on OVCAR-4 ovarian, in the test on HOP-62 NSCLC and in the test with 786-0 renal was over 100 µM throughout. The TGI in the test with UO-31 renal, with HL-60(TB) leukemia, in the test with MCF7 breast, in the test on OVCAR-5 ovarian and in the test on PC-3 prostate was over 100 µM throughout.

For the molecule `O=C1CSC2(CC(/C=C/c3ccccc3[N+](=O)[O-])=NN2c2cccc(S(=O)(=O)O)c2)N1c1nc2ccccc2s1` (stereo unspecified), the TGI with EKVX NSCLC was over 75 µM; in the test on ACHN renal, 44.2 µM; in the test on OVCAR-4 ovarian, 35.3 µM; in the test on 786-0 renal it was 22.5 µM; in the test with UO-31 renal, 25.1 µM; in the test with HL-60(TB) leukemia it was 63.7 µM. Further, the TGI with MCF7 breast amounted to 26.4 µM; with OVCAR-5 ovarian, 39.9 µM; in the test with PC-3 prostate, 35.4 µM.

For the molecule `CCN(CC)CCCNc1c2cc(OC)ccc2nc2cccc([N+](=O)[O-])c12`, the TGI amounted to 0.789 µM with SK-OV-3 ovarian; 0.446 µM in the test with EKVX NSCLC; 0.306 µM with ACHN renal; 0.0779 µM in the test on OVCAR-4 ovarian; 0.412 µM with HOP-62 NSCLC; 0.464 µM with 786-0 renal. The TGI stood at 0.174 µM with UO-31 renal; 0.511 µM in the test on HL-60(TB) leukemia; 0.22 µM in the test with MCF7 breast; 0.432 µM in the test with OVCAR-5 ovarian; 0.224 µM in the test with PC-3 prostate.

`O=CC1C(=O)Nc2nc3ccccc3n2C1c1ccccc1` (stereo unspecified): the TGI in the test on EKVX NSCLC was found to be 82 µM; with ACHN renal, 42.7 µM; in the test on OVCAR-4 ovarian, 80.3 µM; with HOP-62 NSCLC it was 20.2 µM; in the test with 786-0 renal, 24.9 µM; in the test with UO-31 renal, 27.4 µM. Further, the TGI is over 100 µM in the test on HL-60(TB) leukemia, 27.4 µM with MCF7 breast, 95.7 µM in the test with OVCAR-5 ovarian and 42.4 µM in the test on PC-3 prostate.

On to `O=C(Nc1ccccn1)c1cc2c(cc1Cl)Sc1nccn1S2(=O)=O`, for which the TGI in the test with SK-OV-3 ovarian is over 100 µM; in the test with EKVX NSCLC it was 94.5 µM; with ACHN renal, over 100 µM; in the test on OVCAR-4 ovarian, over 100 µM; with HOP-62 NSCLC, over 100 µM; with 786-0 renal, over 100 µM. The TGI in the test on UO-31 renal was 94.9 µM; in the test with HL-60(TB) leukemia it was 74.3 µM; in the test with MCF7 breast, over 100 µM; with OVCAR-5 ovarian it was over 100 µM; in the test with PC-3 prostate, over 100 µM.

For `CN1CCN2CCN(C)CCN(CC1)CC2`, the TGI with SK-OV-3 ovarian, with EKVX NSCLC, in the test with ACHN renal, in the test with OVCAR-4 ovarian, in the test on HOP-62 NSCLC and in the test on 786-0 renal was over 100 µM in each case. In addition, the TGI in the test with UO-31 renal, in the test on HL-60(TB) leukemia, with MCF7 breast, with OVCAR-5 ovarian and with PC-3 prostate was over 100 µM each time.

In the case of `C[C@@H](Br)[C@@H]1CC[C@H]2c3[nH]c4ccccc4c3CCN2C1`, the TGI was 87.2 µM with SK-OV-3 ovarian; over 100 µM in the test on EKVX NSCLC; over 100 µM in the test with ACHN renal; over 100 µM in the test on OVCAR-4 ovarian; 40.5 µM with HOP-62 NSCLC; 36.6 µM in the test on 786-0 renal. Moreover, the TGI in the test on UO-31 renal is over 100 µM; in the test with HL-60(TB) leukemia it was 39.5 µM; in the test with MCF7 breast it was 77.6 µM; in the test on OVCAR-5 ovarian it was over 100 µM; in the test with PC-3 prostate, 75.4 µM.

As to `COc1cc(C2C(Cl)C(=O)N2NC(=O)c2ccccc2O)cc(OC)c1OC` (stereo unspecified), the TGI is over 10 µM with EKVX NSCLC; over 10 µM in the test on ACHN renal; over 10 µM in the test with OVCAR-4 ovarian; over 10 µM in the test with 786-0 renal; over 10 µM with UO-31 renal; 5.96 µM in the test on HL-60(TB) leukemia. The results for the TGI with MCF7 breast, in the test on OVCAR-5 ovarian and in the test on PC-3 prostate were 7.36 µM, over 10 µM and over 10 µM, respectively.

Turning to `CC(=O)Nc1ccc2cc3c(nc2n1)c1cccnc1n3S(=O)(=O)c1ccccc1`, the TGI in the test on SK-OV-3 ovarian, in the test with EKVX NSCLC, with ACHN renal, with OVCAR-4 ovarian, with HOP-62 NSCLC and in the test with 786-0 renal was over 100 µM each time. Moreover, the TGI in the test with UO-31 renal, in the test with HL-60(TB) leukemia, in the test with MCF7 breast, in the test with OVCAR-5 ovarian and in the test on PC-3 prostate was over 100 µM throughout.

Take `O=C(O)Cc1ccc(-n2nnc3c(=O)[nH][nH]c(=O)c32)cc1`: the TGI in the test on EKVX NSCLC, in the test with ACHN renal, in the test with OVCAR-4 ovarian, with HOP-62 NSCLC, in the test on 786-0 renal and with UO-31 renal was over 100 µM in each case. Besides, the TGI in the test on HL-60(TB) leukemia, in the test on MCF7 breast, in the test on OVCAR-5 ovarian and in the test on PC-3 prostate was over 100 µM each time.

Take `Cc1nc2ccccc2n1Cc1ccc(NC(=S)NC2CCCCC2)cc1`: the TGI in the test with SK-OV-3 ovarian is over 100 µM; with EKVX NSCLC it was over 92.9 µM; with ACHN renal, 44.4 µM; in the test with OVCAR-4 ovarian, over 100 µM; with HOP-62 NSCLC, over 100 µM; with 786-0 renal, over 100 µM. In addition, the TGI is over 100 µM in the test with UO-31 renal; over 100 µM in the test with HL-60(TB) leukemia; 72.3 µM in the test with MCF7 breast; over 100 µM with OVCAR-5 ovarian; over 100 µM in the test with PC-3 prostate.

Consider `COc1ccc(-c2c3c(n(C4OC(COC(C)=O)C(OC(C)=O)C(OC(C)=O)C4OC(C)=O)c(=S)c2C#N)CCCC3)cc1` (stereo unspecified), for which the TGI in the test with SK-OV-3 ovarian was over 100 µM; in the test on EKVX NSCLC it was over 100 µM; with ACHN renal, over 100 µM; in the test on OVCAR-4 ovarian, 98.9 µM; with HOP-62 NSCLC, over 100 µM; with 786-0 renal it was over 100 µM. In addition, the TGI is over 100 µM in the test with UO-31 renal; over 100 µM with HL-60(TB) leukemia; over 100 µM in the test on MCF7 breast; over 100 µM in the test on OVCAR-5 ovarian; 66.7 µM with PC-3 prostate.
